Assays:
Experiment in all cases: area under dose-response curve of % growth inhibition (log2 RLU vs DMSO / staurosporine), 1e-11 to 1e-4 M (% x log10 M); higher = more growth inhibition
[1] = test system: DIPGX29 (H3.3 K27M diffuse intrinsic pontine glioma line)
In short: (§1)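 Cells were exposed in triplicate for 7 days (iAstro: 3 days) at 37 °C, 5% CO2 to a 10-point series of threefold dilutions with a mean top concentration of 35 μM. These were patient-derived pHGG/DIPG lines plus astrocytes, grown on 384-well plates coated with 1% Geltrex. Readout was CellTiter-Glo luminescence, log2-transformed and set per plate to % activity between solvent and positive controls, from which area under the curve was derived by trapezoid rule on a log-logistic fit or, failing that, a smoothing spline.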

[2] = test system: DIPGX37 (H3.3 K27M diffuse intrinsic pontine glioma line)
In short: as §1

[3] = test system: HGGX39 (paediatric high-grade glioma line)
In short: as §1

[4] = test system: HGGX6 (H3.3 G34R paediatric high-grade glioma line)
In short: as §1

SMILES	area under dose-response curve [1]	area under dose-response curve [2]	area under dose-response curve [3]	area under dose-response curve [4]
Nc1ncnc2c1c(COc1cccc(Cl)c1)nn2C1CCOCC1	10	32.2	23.5	14.3
O=C(O)c1ccc(CN2CCC(CN[C@@H]3C[C@H]3c3ccccc3)CC2)cc1	1.9	20.1	2.17	0.903
CN(N=O)C(=O)N[C@H]1C(O)O[C@H](CO)[C@@H](O)[C@@H]1O (mixture of isomers) [STREPTOZOSIN]	11	8.39	7.25	5.51
Nc1ncn([C@@H]2O[C@H](CO)[C@@H](O)[C@H]2O)c(=O)n1 [5-AZACYTIDINE]	12.5	18.2	17.6	12.1
Nc1nc(=O)n([C@H]2C[C@H](O)[C@@H](CO)O2)cc1F [5-FLUORODEOXYCYTIDINE]	42.2	10.7	39.7	28.8
O=c1[nH]cc(F)c(=O)[nH]1 [5-FLUOROURACIL]	17.6	4.4	10.6	25.2
COc1cc2c(cc1OCCCN1CCCC1)N=C(N)C21CCC1 [A-366]	9.92	19	9.97	19.9
CC(=O)O[C@H]1CC[C@@]2(C)C(=CC[C@@H]3[C@@H]2CC[C@]2(C)C(c4cccnc4)=CC[C@@H]32)C1 [ABIRATERONE ACETATE]	0	20.1	6.95	0
CCC1(c2ccc(N)cc2)CCC(=O)NC1=O (stereo not drawn) [AMINOGLUTETHIMIDE]	7.58	4.75	3.33	14.3
CC(C)(C#N)c1cc(Cn2cncn2)cc(C(C)(C)C#N)c1 [ANASTROZOLE]	7.52	5.71	1.48	1.46
CO[C@H]1O[C@@H]2O[C@@]3(C)CC[C@H]4[C@H](C)CC[C@@H]([C@H]1C)[C@@]24OO3 [ARTEMETHER]	5.53	3.95	14.4	17.6
CCN(C(=O)CO)[C@H]1CN(/C(=N\C#N)Nc2cccc(OC(F)F)c2)N=C1c1ccc(Cl)c(Cl)c1 [BAY598]	18.1	16.3	10.8	8.24
Cn1cc(CCn2cnc(-c3cnn(C)c3)c2-c2ccc(C#N)cc2)cn1 [BAZ2-ICR]	8.96	22.9	16.5	14.6
C[C@H]1C[C@H]2[C@@H]3CCC4=CC(=O)C=C[C@]4(C)[C@@]3(F)[C@@H](O)C[C@]2(C)[C@@]1(O)C(=O)CO [BETAMETHASONE]	23.1	10.5	11.8	16.4
C=C(c1ccc(C(=O)O)cc1)c1cc2c(cc1C)C(C)(C)CCC2(C)C [BEXAROTENE]	21.8	6.14	28.4	13.2
COc1cc(-c2cn(C)c(=O)c3cnccc23)c(OC)cc1CN(C)C [BI-9564]	12.6	11.6	5.33	3.53
C/C(=C\C(=O)Nc1ccccc1C(=O)O)c1ccc2ccccc2c1 [BIBR-1532]	0	20.5	0	8.79
CC(=O)Oc1ccc(C(c2ccc(OC(C)=O)cc2)c2ccccn2)cc1 [BISACODYL]	2.56	11.1	27.8	10.4
O=c1[nH]c(=O)n([C@H]2C[C@H](O)[C@@H](CO)O2)cc1/C=C/Br [BRIVUDINE]	6.05	9.7	1.13	2.8
CCCC1O[C@@H]2C[C@H]3[C@@H]4CCC5=CC(=O)C=C[C@]5(C)[C@H]4[C@@H](O)C[C@]3(C)[C@]2(C(=O)CO)O1 (stereo partly drawn) [BUDESONIDE]	35.7	19.3	11.8	6.8
CCCCCCNC(=O)n1cc(F)c(=O)[nH]c1=O [CARMOFUR]	20.1	30.3	20.2	15.3

SMILES	area under dose-response curve [1]	area under dose-response curve [2]	area under dose-response curve [3]	area under dose-response curve [4]
O=C(O)CCCc1ccc(N(CCCl)CCCl)cc1 [CHLORAMBUCIL]	25.8	15.9	20.8	18.3
Nc1nc(Cl)nc2c1ncn2[C@H]1C[C@H](O)[C@@H](CO)O1 [CLADRIBINE]	54.8	32.4	40.8	39.3
Nc1ccn([C@@H]2O[C@H](CO)[C@@H](O)[C@@H]2O)c(=O)n1 [CYTARABINE]	42.9	23.3	30.6	15.6
CN(C)/N=N/c1[nH]cnc1C(N)=O [DACARBAZINE]	6.29	17.2	19.3	16.5
Nc1ncn([C@H]2C[C@H](O)[C@@H](CO)O2)c(=O)n1 [DECITABINE]	4.32	9.77	7.33	3.81
CC(=O)O[C@@]12CO[C@@H]1C[C@H](O)[C@@]1(C)C(=O)[C@H](O)C3=C(C)[C@@H](OC(=O)[C@H](O)[C@@H](NC(=O)OC(C)(C)C)c4ccccc4)C[C@@](O)([C@@H](OC(=O)c4ccccc4)[C@H]21)C3(C)C [DOCETAXEL]	55.8	56	120	86.7
COc1cc([C@@H]2c3cc4c(cc3[C@@H](O[C@@H]3O[C@@H]5CO[C@@H](C)O[C@H]5[C@H](O)[C@H]3O)[C@H]3COC(=O)[C@H]23)OCO4)cc(OC)c1O [ETOPOSIDE]	39.6	14.2	33.1	25.4
Cc1cc(C#N)cc(C)c1Oc1nc(Nc2ccc(C#N)cc2)nc(N)c1Br [ETRAVIRINE]	24.2	10.8	18.9	9.91
CS(=O)(=O)c1ccc([C@@H](O)[C@@H](CF)NC(=O)C(Cl)Cl)cc1 [FLORFENICOL]	11.3	10.6	15.6	4.4
Nc1nc(F)nc2c1ncn2[C@@H]1O[C@H](COP(=O)(O)O)[C@@H](O)[C@@H]1O [FLUDARABINE PHOSPHATE]	32.1	39.7	10.3	6.46
N[C@H](CCC(=O)N[C@@H](Cc1c[nH]c2ccccc12)C(=O)O)C(=O)O [GOLOTIMOD]	8.23	15.2	0.705	5.25
CCCOc1ccn2c(C(C)=O)cc(-c3ccccc3S(C)(=O)=O)c2c1 [GSK2801]	19.1	8.52	10.4	21.4
COc1ccccc1C(=O)Nc1cc2c(cc1N1CCCCC1)n(C)c(=O)n2C [GSK-5959]	8.32	76.9	41.9	45.8
c1ccc([C@@H]2C[C@H]2NC2CCNCC2)cc1 [GSK-LSD1]	0	5.85	0	0
Nc1ncn([C@H]2C[C@H](OP(=O)(O)OC[C@H]3O[C@@H](n4cnc5c(=O)[nH]c(N)nc54)C[C@@H]3O)[C@@H](CO)O2)c(=O)n1 [GUADECITABINE]	0	16.4	0	0
CCN(CCO)CCCC(C)Nc1ccnc2cc(Cl)ccc12 (stereo not drawn) [HYDROXYCHLOROQUINE]	5.15	8.17	0	1.95
CCC(=O)N1CCOc2c(cc(-c3ccc(OC)c(OC)c3)cc2OC[C@H]2CCCN(C)C2)C1 [I-CBP112]	14.1	18	2.35	16.4
COc1cc(C(C)=O)ccc1OCCCN1CCC(c2noc3cc(F)ccc23)CC1 [ILOPERIDONE]	15.1	13.2	10.3	5.98
O=C(O)c1ccc(O)c2ncccc12 [IOX1]	3.7	9.36	2.63	5.89
O=C(O)CNC(=O)c1c(O)c2ccccc2n(Cc2ccccc2)c1=O [IOX2]	9.33	6.07	12.7	12.6
CCOC(=O)c1ccnc(CNCC(=O)N(CC)CCN(C)C)c1 [KDM5-C70]	9.21	3.66	7.74	2.7

SMILES	area under dose-response curve [1]	area under dose-response curve [2]	area under dose-response curve [3]	area under dose-response curve [4]
Cc1oncc1C(=O)Nc1ccc(C(F)(F)F)cc1 [LEFLUNOMIDE]	5.84	2.94	4.82	2.22
CC(N[C@H]1C[C@@H]1c1ccccc1)c1ccc2c(c1)OCCO2 (stereo partly drawn) [LSD1-C76]	6.56	24	12	7.75
CN(Cc1cnc2nc(N)nc(N)c2n1)c1ccc(C(=O)N[C@@H](CCC(=O)O)C(=O)O)cc1 [METHOTREXATE]	44.1	30.5	39.9	58.8
Clc1ccc(C(c2ccccc2Cl)C(Cl)Cl)cc1 (stereo not drawn) [MITOTANE]	12.9	16.1	8.7	12.5
C[C@@H]1C[C@H]2[C@@H]3CCC4=CC(=O)C=C[C@]4(C)[C@@]3(Cl)[C@@H](O)C[C@]2(C)[C@@]1(OC(=O)c1ccco1)C(=O)CCl [MOMETASONE FUROATE]	42.1	40.5	20.8	8.37
CC(C)Oc1ccc(-c2c[nH]cc2CN(C)CCN)cc1 [MS023]	10.9	10.6	8.58	14.7
CNCCN1CCC(OCc2ccccc2)CC1 [MS049]	19.1	10.6	9.22	11.9
COc1cc(C#N)ccc1S(=O)(=O)Nc1ccc2c(c1)cc(C)c(=O)n2C [NI-57]	13.6	7.6	22.9	15.9
CC1CS(=O)(=O)CCN1/N=C/c1ccc([N+](=O)[O-])o1 (stereo not drawn) [NIFURTIMOX]	18.2	17.9	23.6	22
Cc1cn(-c2cc(NC(=O)c3ccc(C)c(Nc4nccc(-c5cccnc5)n4)c3)cc(C(F)(F)F)c2)cn1 [NILOTINIB]	14.3	18.9	14.9	16.8
Cc1ncc(CNC(=O)N(CCCl)N=O)c(N)n1 [NIMUSTINE]	1.11	0	1.19	1.35
COc1ccc2c(c1OC)C(=O)O[C@@H]2[C@H]1c2c(cc3c(c2OC)OCO3)CCN1C [NOSCAPINE]	3.97	4.1	3.21	3.61
CN1CCN(c2ccc(-c3cccc(CN4CCOCC4)c3)cc2NC(=O)c2c[nH]c(=O)cc2C(F)(F)F)CC1 [OICR-9429]	6.88	4.44	6.53	15.6
Cc1ccc(Nc2nccc(N(C)c3ccc4c(C)n(C)nc4c3)n2)cc1S(N)(=O)=O [PAZOPANIB]	14.4	12.6	14.8	16.8
Nc1nc2[nH]cc(CCc3ccc(C(=O)N[C@@H](CCC(=O)O)C(=O)O)cc3)c2c(=O)[nH]1 [PEMETREXED]	34.6	9.28	23.2	12.7
OC[C@H]1O[C@@H](n2cnc3c2N=CNC[C@H]3O)C[C@@H]1O [PENTOSTATIN]	3.92	10.9	10	5.39
COc1ccccc1S(=O)(=O)Nc1ccc2c(c1)CN(C)C(=O)N2 [PFI-1]	23.7	27.8	20.6	17.1
O=C(/C=C/N1C[C@H]2C[C@@H]1CN2c1ccccn1)c1ccccc1O [PFI-3]	9.58	20.6	10.6	11.5
COc1ccccc1C(=O)Nc1cc2c(cc1N1CCCC1)n(C)c(=O)n2C [PFI-4]	21.9	6.98	20.5	18.2
CC(C)N(C[C@H]1O[C@@H](n2cnc3c(N)ncnc32)[C@H](O)[C@@H]1O)[C@H]1C[C@@H](CCc2nc3cc(C(C)(C)C)ccc3[nH]2)C1 [PINOMETOSTAT]	6.21	14.5	0.36	4.37
